{
  "source": "patent US10662205B2",
  "about": "“Cyclic boronic acid ester derivatives and therapeutic uses thereof” (priority 2014, dated 2020)",
  "key": {"KP1005 (CTX-M-14) [1]": {"tested_on": "KP1005 (CTX-M-14)", "assay": "Aztreonam potentiation (MPC@4)", "type": "cell-based", "conditions": "aztreonam 4 μg/mL"}, "KP1009 (CTX-M-15) [2]": {"tested_on": "KP1009 (CTX-M-15)", "assay": "Aztreonam potentiation (MPC@4)", "type": "cell-based", "conditions": "aztreonam 4 μg/mL"}, "ec308 (SHV-5) [3]": {"tested_on": "ec308 (SHV-5)", "assay": "Aztreonam potentiation (MPC@4)", "type": "cell-based", "conditions": "aztreonam 4 μg/mL"}, "KP1010 (SHV-12) [4]": {"tested_on": "KP1010 (SHV-12)", "assay": "Aztreonam potentiation (MPC@4)", "type": "cell-based", "conditions": "aztreonam 4 μg/mL"}, "ec302 (TEM-10) [5]": {"tested_on": "ec302 (TEM-10)", "assay": "Aztreonam potentiation (MPC@4)", "type": "cell-based", "conditions": "aztreonam 4 μg/mL"}, "KP1004 (KPC-2) [6]": {"tested_on": "KP1004 (KPC-2)", "assay": "Aztreonam potentiation (MPC@4)", "type": "cell-based", "conditions": "aztreonam 4 μg/mL"}, "ECL1002 [7]": {"tested_on": "ECL1002", "assay": "Aztreonam potentiation (MPC@4)", "type": "cell-based", "conditions": "aztreonam 4 μg/mL"}, "EC1010 (CMY-6) [8]": {"tested_on": "EC1010 (CMY-6)", "assay": "Aztreonam potentiation (MPC@4)", "type": "cell-based", "conditions": "aztreonam 4 μg/mL"}, "KP1005 (CTX-M-14) [9]": {"tested_on": "KP1005 (CTX-M-14)", "assay": "Tigemonam potentiation (MPC@4)", "type": "cell-based", "conditions": "tigemonam 4 μg/mL"}, "KP1009 (CTX-M-15) [10]": {"tested_on": "KP1009 (CTX-M-15)", "assay": "Tigemonam potentiation (MPC@4)", "type": "cell-based"}, "ec308 (SHV-5) [11]": {"tested_on": "ec308 (SHV-5)", "assay": "Tigemonam potentiation (MPC@4)", "type": "cell-based", "conditions": "tigemonam 4 μg/mL"}, "KP1010 (SHV-12) [12]": {"tested_on": "KP1010 (SHV-12)", "assay": "Tigemonam potentiation (MPC@4)", "type": "cell-based"}, "ec302 (TEM-10) [13]": {"tested_on": "ec302 (TEM-10)", "assay": "Tigemonam potentiation (MPC@4)", "type": "cell-based", "conditions": "tigemonam 4 μg/mL"}, "ECL1002 [14]": {"tested_on": "ECL1002", "assay": "Tigemonam potentiation (MPC@4)", "type": "cell-based", "conditions": "tigemonam 4 μg/mL"}, "EC1010 (CMY-6) [15]": {"tested_on": "EC1010 (CMY-6)", "assay": "Tigemonam potentiation (MPC@4)", "type": "cell-based", "conditions": "tigemonam 4 μg/mL; EC1010, CMY-6"}, "CTX-M-14": {"target": "CTX-M-14 (Escherichia coli, UniProt Q9L5C7)", "sequence (Q9L5C7 29-291)": "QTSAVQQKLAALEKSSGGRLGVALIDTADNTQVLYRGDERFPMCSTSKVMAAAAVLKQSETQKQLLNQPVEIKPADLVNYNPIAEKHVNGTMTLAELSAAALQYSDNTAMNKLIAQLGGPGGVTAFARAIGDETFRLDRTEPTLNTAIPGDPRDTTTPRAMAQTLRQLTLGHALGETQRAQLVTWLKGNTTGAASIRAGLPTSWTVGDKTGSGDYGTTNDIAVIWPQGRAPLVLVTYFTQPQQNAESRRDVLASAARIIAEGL", "assay": "Inhibition of nitrocefin cleavage by purified enzyme (Ki)", "type": "biochemical", "conditions": "nitrocefin reporter substrate; 10 min preincubation; read-out: Ki CTX-M-14, NCF", "description": "(§1) Ki values of inhibition of purified class A, C and D enzymes were determined spectrophotometrically using nitrocefin as reporter substrate. Purified enzymes were mixed with various concentrations of inhibitors in reaction buffer and incubated for 10 min at room temperature. Nitrocefin was added and substrate cleavage profiles were recorded at 490 nm every 10 sec for 10 min."}, "SHV-12": {"target": "SHV-12 (Klebsiella pneumoniae, UniProt P0AD64, E235K/G234S/L31Q)", "sequence (P0AD64 22-286 L31Q/G234S/E235K)": "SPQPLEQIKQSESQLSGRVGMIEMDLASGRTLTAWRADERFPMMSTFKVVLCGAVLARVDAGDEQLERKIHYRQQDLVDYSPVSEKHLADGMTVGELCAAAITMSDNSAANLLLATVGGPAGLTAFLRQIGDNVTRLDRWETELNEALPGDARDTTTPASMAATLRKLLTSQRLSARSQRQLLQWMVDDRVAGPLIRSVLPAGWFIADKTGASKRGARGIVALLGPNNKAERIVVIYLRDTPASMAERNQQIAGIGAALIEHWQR", "assay": "Inhibition of nitrocefin cleavage by purified enzyme (Ki)", "type": "biochemical", "description": "as §1"}, "CMY-2": {"target": "CMY-2 (Klebsiella pneumoniae, UniProt Q48434)", "sequence (Q48434 21-381, species assumed)": "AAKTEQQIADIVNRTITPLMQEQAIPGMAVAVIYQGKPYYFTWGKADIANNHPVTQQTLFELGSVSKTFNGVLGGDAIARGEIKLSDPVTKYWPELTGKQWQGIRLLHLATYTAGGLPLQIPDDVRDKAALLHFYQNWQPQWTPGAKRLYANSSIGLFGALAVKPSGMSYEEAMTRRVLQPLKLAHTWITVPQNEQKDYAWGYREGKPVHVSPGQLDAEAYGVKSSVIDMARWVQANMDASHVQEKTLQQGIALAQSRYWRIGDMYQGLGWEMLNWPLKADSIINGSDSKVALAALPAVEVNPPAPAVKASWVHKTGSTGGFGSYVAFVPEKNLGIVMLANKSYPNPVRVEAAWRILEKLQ", "assay": "Inhibition of nitrocefin cleavage by purified enzyme (Ki)", "type": "biochemical", "conditions": "nitrocefin reporter substrate; 10 min preincubation; read-out: Ki CMY-2, NCF", "description": "(§2) Ki values of inhibition of purified class A, C and D enzymes were determined spectrophotometrically using nitrocefin as reporter substrate. Purified enzymes were mixed with various concentrations of inhibitors in reaction buffer and incubated for 10 min at room temperature. Nitrocefin was added and substrate cleavage profiles were recorded at 490 nm every 10 sec for 10 min. These experiments confirmed that the described compounds are inhibitors with a broad-spectrum of activity towards various β-lactamases."}, "KPC-2": {"target": "KPC-2 (Klebsiella pneumoniae, UniProt Q9F663)", "sequence (Q9F663 25-293, looked up, species assumed)": "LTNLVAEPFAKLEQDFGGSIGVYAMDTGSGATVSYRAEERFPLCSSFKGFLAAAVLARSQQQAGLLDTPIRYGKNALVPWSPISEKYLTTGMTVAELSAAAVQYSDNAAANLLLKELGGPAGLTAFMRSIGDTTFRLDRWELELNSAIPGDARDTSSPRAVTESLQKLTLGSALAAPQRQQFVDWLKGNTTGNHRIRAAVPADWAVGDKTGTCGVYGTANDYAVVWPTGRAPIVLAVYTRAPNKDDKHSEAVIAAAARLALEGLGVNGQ", "assay": "Inhibition of nitrocefin cleavage by purified enzyme (Ki)", "type": "biochemical", "conditions": "nitrocefin reporter substrate; 10 min preincubation; read-out: Ki KPC-2, NCF", "description": "as §2"}, "OXA-48": {"target": "OXA-48 (Klebsiella pneumoniae, UniProt Q6XEC0)", "sequence (Q6XEC0 23-265, looked up, species assumed)": "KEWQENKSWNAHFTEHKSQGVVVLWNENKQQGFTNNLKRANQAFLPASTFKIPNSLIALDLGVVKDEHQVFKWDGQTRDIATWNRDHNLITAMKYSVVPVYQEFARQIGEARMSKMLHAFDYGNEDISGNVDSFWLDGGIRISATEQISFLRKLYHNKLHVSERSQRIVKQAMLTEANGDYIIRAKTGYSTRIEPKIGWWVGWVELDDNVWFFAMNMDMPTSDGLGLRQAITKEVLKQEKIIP", "assay": "Inhibition of nitrocefin cleavage by purified enzyme (Ki)", "type": "biochemical", "conditions": "nitrocefin reporter substrate; 10 min preincubation; read-out: Ki OXA-48, NCF", "description": "as §2"}, "P99": {"target": "P99 (Enterobacter cloacae, UniProt P05364)", "sequence (P05364 21-381)": "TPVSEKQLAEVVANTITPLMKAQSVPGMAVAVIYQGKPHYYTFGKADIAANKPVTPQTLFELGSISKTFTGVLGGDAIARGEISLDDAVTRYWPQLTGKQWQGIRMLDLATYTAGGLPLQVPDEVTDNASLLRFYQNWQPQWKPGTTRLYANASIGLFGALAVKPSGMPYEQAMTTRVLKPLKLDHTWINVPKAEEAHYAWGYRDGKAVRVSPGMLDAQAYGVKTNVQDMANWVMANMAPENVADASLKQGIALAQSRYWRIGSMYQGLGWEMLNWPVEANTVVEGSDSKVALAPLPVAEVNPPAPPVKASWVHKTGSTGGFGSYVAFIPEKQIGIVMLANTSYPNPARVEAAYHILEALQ", "assay": "biochemical", "conditions": "nitrocefin reporter substrate; 10 min preincubation; read-out: Ki P99, NCF", "description": "as §1"}, "PAM1032/KPC-2": {"tested_on": "PAM1032/KPC-2", "assay": "Biapenem potentiation MPC64, efflux proficient strain", "type": "cell-based, Pseudomonas aeruginosa", "design": "unit not given here", "conditions": "efflux proficient (MexAB-OprM overexpressed); decrease biapenem MIC 64-fold, 32 to 0.5 μg/ml", "description": "(§3) Efflux of BLIs from Pseudomonas aeruginosa by the MexAB-OprM efflux pump was also evaluated. The plasmid expressing the gene encoding KPC-2 was introduced into two strains of P. aeruginosa, PAM1032 and PAM1154 that overexpressed or lacked MexAB-OprM, respectively. Due to expression of KPC-2 both strains became resistant to biapenem. […] Potency of BLIs to potentiate biapenem in these strains was determined. […] The ratio of MPC64 values for each BLI in PAM1032/KPC-2 (efflux proficient) and PAM1154/KPC-2 (efflux deficient) was determined to generate the Efflux Index (EI)."}, "PAM1154/KPC-2": {"tested_on": "PAM1154/KPC-2", "assay": "Biapenem potentiation MPC64, efflux deficient strain", "type": "cell-based, Pseudomonas aeruginosa", "design": "unit not given here", "conditions": "efflux deficient (lacks MexAB-OprM); decrease biapenem MIC 64-fold, 32 to 0.5 μg/ml", "description": "as §3"}, "Oral pharmacokinetics": {"assay": "Oral pharmacokinetics", "type": "in vivo", "conditions": "rat, plasma; rats, single oral dose 30 mg/kg, n=3; read-out: Range of % Oral Bioavailability", "description": "Several compounds were tested for their oral pharmacokinetics. Rats (n=3 per compound) were administered a single oral dose. Oral doses were administered as a bolus. Plasma (˜0.3 mL) samples were collected from each rat at designated time points up to 24 hours. Blood samples were centrifuged within 5 min of collection at 12000 g for 5 min to obtain plasma. The plasma samples were stored at −80° C. until analyzed. Data were analyzed using WinNonlin."}, "KP1004 (KPC-2) [16]": {"tested_on": "KP1004 (KPC-2)", "assay": "Biapenem potentiation (MPC@1)", "conditions": "biapenem 1 μg/mL"}, "KP1086 (OXA-48)": {"tested_on": "KP1086 (OXA-48)", "assay": "Biapenem potentiation (MPC@1)", "conditions": "biapenem 1 μg/mL"}},
  "note": "pKi: −log10 of the molar value.",
  "data": [
    {"smiles": "Nc1nnc(SCC(=O)N[C@H]2CC=C[C@@H]3CC(=O)OB2O3)s1", "note": "[Compound 6, 2-(5-AMINO-1,3,4-THIADIAZOL-2-YLTHIO)-N-((2R,6S)-8-OXO-9,10-DIOXA-1-BORABICYCLO[4.3.1]DEC-4-EN-2-YL)ACETAMIDE]", "values": [
      {"measurement": "MPC@4 aztreonam potentiation", "setting": "KP1005 (CTX-M-14) [1]", "result": "X (X = MPC@4 ≤ 5 μg/mL)"},
      {"measurement": "MPC@4 aztreonam potentiation", "setting": "KP1009 (CTX-M-15) [2]", "result": "X (X = MPC@4 ≤ 5 μg/mL)"},
      {"measurement": "MPC@4 aztreonam potentiation", "setting": "ec308 (SHV-5) [3]", "result": "X (X = MPC@4 ≤ 5 μg/mL)"},
      {"measurement": "MPC@4 aztreonam potentiation", "setting": "KP1010 (SHV-12) [4]", "result": "X (X = MPC@4 ≤ 5 μg/mL)"},
      {"measurement": "MPC@4 aztreonam potentiation", "setting": "ec302 (TEM-10) [5]", "result": "X (X = MPC@4 ≤ 5 μg/mL)"},
      {"measurement": "MPC@4 aztreonam potentiation", "setting": "KP1004 (KPC-2) [6]", "result": "X (X = MPC@4 ≤ 5 μg/mL)"},
      {"measurement": "MPC@4 aztreonam potentiation", "setting": "ECL1002 [7]", "result": "X (X = MPC@4 ≤ 5 μg/mL)"},
      {"measurement": "MPC@4 aztreonam potentiation", "setting": "EC1010 (CMY-6) [8]", "result": "X (X = MPC@4 ≤ 5 μg/mL)"},
      {"measurement": "MPC@4 tigemonam potentiation", "setting": "KP1005 (CTX-M-14) [9]", "result": "X (X = MPC@4 ≤ 5 μg/mL)"},
      {"measurement": "MPC@4 tigemonam potentiation", "setting": "KP1009 (CTX-M-15) [10]", "result": "X (key: X = MPC@4 ≤ 5 μg/mL; Y = 5 μg/mL < MPC@4 ≤ 20 μg/mL; Z = MPC@4 > 20 μg/mL)"},
      {"measurement": "MPC@4 tigemonam potentiation", "setting": "ec308 (SHV-5) [11]", "result": "X (X = MPC@4 ≤ 5 μg/mL)"},
      {"measurement": "MPC@4 tigemonam potentiation", "setting": "KP1010 (SHV-12) [12]", "result": "X (key: X = MPC@4 ≤ 5 μg/mL; Y = 5 μg/mL < MPC@4 ≤ 20 μg/mL; Z = MPC@4 > 20 μg/mL)"},
      {"measurement": "MPC@4 tigemonam potentiation", "setting": "ec302 (TEM-10) [13]", "result": "Y (Y = 5 μg/mL < MPC@4 ≤ 20 μg/mL)"},
      {"measurement": "MPC@4 tigemonam potentiation", "setting": "ECL1002 [14]", "result": "X (X = MPC@4 ≤ 5 μg/mL)"},
      {"measurement": "MPC@4 tigemonam potentiation", "setting": "EC1010 (CMY-6) [15]", "result": "X (X = MPC@4 ≤ 5 μg/mL)"},
      {"measurement": "pKi", "setting": "CTX-M-14", "result": "> 7.00"},
      {"measurement": "pKi", "setting": "SHV-12", "result": "> 7.00"},
      {"measurement": "pKi", "setting": "CMY-2", "result": "> 7.00"},
      {"measurement": "pKi", "setting": "KPC-2", "result": "6.00 to 7.00"},
      {"measurement": "pKi", "setting": "OXA-48", "result": "6.00 to 7.00"},
      {"measurement": "pKi", "setting": "P99", "result": "> 7.00"},
      {"measurement": "PAM1032/KPC-2 Biapenem MPC64", "setting": "PAM1032/KPC-2", "result": 40},
      {"measurement": "PAM1154/KPC-2 Biapenem MPC64", "setting": "PAM1154/KPC-2", "result": 5},
      {"measurement": "bioavailability", "setting": "Oral pharmacokinetics", "result": "2 to 4", "unit": "%"},
      {"measurement": "MPC@1 biapenem potentiation", "setting": "KP1004 (KPC-2) [16]", "result": "X (X = MPC@1 ≤ 5 μg/mL)"},
      {"measurement": "MPC@1 biapenem potentiation", "setting": "KP1086 (OXA-48)", "result": "Z (Z = MPC@1 > 20 μg/mL)"}
    ]}
  ]
}
